Measured values as given in patent publication US20050282818A1, “Ubiquitin ligase inhibitors” (Rigel Pharmaceuticals, Inc., priority 2004, published 2005).

Key:
[1] = test system: ICAM-1 expression in A549 cells; test: ICAM assay (IL-1 induced ICAM-1/CD54 expression in A549 cells); assay type: cell-based, human
From the text: The expression of intercellular adhesion molecule (ICAM)-1 in endothelial cells is pivotal in supporting lymphocyte migration across the vascular endothelium. TNF/IL-1 induces the NF-kB pathway in which NF-kB acts as a transcription factor and activation of NF-kB induces ICAM expression. IkB inhibits NF-KB by binding to it and retaining NF-kB in the cytoplasm. Upon cytokine stimulation, several signaling molecule including TRAF6, IKKs, and TAK1 are activated which lead to the phosphorylation of IkB. Phosphorylated IkB is then ubiquitinated by the SCF complex and degraded by proteasome, thereby releasing NF-kB to translocate into the nucleus. In the nucleus, NF-kB binds to DNA and activates transcription of various genes that are involved in inflammation, cell survival, and apoptosis. The ICAM assay is a primary assay for HTS as well as a cell based assay for TRAF6 inhibitors.
The following materials are used 96-well plates; F12K complete medium that includes 10% FBS and 1% P/S (penicillin/streptomycin); 1×PBS; 5 ug/ml IL-1, Human CD54 (CALTAG Laboratory, Cat#MHCD5400-4); anti-mouse-IgG (Jackson Lab, Cat#115-035 146); and A549 cells.
Procedure. 10,000 A549 cells/well were seeded in 100 μl F12K complete medium in a 96-well white plate. The seeded plate was incubate at 37° C. incubator in 5% CO2 overnight. After the overnight incubation, 4 μl of diluted test compound was added and incubated for 1 hour at 37° C. After the 1 hour incubation, 4 μl of 25 ng/ml IL-1 was added to each well and the cells were stimulated at 37° C. for 4 hours.
After stimulation, the cells were stained with CD54 (1:1000 diluted with medium) and anti-mouse IgG (1:1100 diluted with medium) for 1 hour. Subsequently, the medium was removed and each well was washed with 200 μl of PBS three times. Detection of activity was performed by addition of 100 μl/well of lumino substrate.

APC11/APC2 = APC11/APC2 (Homo sapiens, UniProt Q9NYG5+Q9UJX6); test: APC-11/APC-2 ligase assay (APC auto ubiquitination); assay type: biochemical; details: APC assay
APC11/APC2, sequence (Q9NYG5 whole entry): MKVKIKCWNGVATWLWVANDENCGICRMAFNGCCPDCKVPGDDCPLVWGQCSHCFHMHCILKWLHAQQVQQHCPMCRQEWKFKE
APC11/APC2, sequence (Q9UJX6 whole entry): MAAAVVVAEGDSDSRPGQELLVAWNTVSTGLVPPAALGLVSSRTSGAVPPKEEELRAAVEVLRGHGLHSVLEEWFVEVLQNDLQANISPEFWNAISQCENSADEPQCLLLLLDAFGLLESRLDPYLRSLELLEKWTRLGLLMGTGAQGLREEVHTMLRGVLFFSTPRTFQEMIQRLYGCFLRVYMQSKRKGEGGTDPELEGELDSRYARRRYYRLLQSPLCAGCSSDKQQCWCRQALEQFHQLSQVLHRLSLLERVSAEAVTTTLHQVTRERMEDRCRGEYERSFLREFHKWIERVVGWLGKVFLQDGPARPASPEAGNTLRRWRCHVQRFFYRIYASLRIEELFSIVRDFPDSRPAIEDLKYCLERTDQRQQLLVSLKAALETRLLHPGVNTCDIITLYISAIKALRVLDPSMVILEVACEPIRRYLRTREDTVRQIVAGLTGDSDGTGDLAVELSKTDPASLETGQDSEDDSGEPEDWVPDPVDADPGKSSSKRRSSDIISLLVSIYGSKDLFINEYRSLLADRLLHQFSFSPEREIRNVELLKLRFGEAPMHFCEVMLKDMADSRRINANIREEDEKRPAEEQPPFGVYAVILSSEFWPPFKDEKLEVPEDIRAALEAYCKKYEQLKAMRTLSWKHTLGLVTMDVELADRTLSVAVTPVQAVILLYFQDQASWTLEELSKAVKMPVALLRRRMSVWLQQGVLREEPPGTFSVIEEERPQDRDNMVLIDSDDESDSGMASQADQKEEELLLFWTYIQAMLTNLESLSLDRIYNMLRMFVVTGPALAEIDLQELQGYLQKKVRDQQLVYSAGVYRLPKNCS
Method: For the assays described below, the TRAF6/Uev1A/UBC13 assay is the biochemical plate-based assay of TRAF6 ligase activity using Ubc13 as the E2 enzyme. The gel-based assay is the biochemical solution-based TRAF6 ligase assay (by SDS-PAGE and Western blot) to confirm the plate-based ELISA assay. The APC assay is an assay which is another E3 ligase (APC2/APC11) biochemical assay.
E3 (His APC11/APC2— “APC”) auto ubiquitination was measured as described in U.S. patent application Ser. No. 09/826,312 (Publication No. U.S. 2002 0042083 A1), which is incorporated by reference in its entirety. Details of the protocol are described below. Activity in the presence of the compound was determined relative to a parallel control in which only DMSO was added. Values of the IC50 were typically determined using 6 or 8 different concentrations of the compound, although as few as 2 concentrations may be used to approximate the IC50 value.
Nickel coated 96 well plates (Pierce 15242) were blocked for 1 hour with 100 μl of blocking buffer at room temperature. The plates were washed 4 times with 225 μl of 1 […]PBS and 80 μl of the reaction buffer were added that contained 100 ng/well of Flag ubiquitin. To this, 10 μl of the test compound diluted in DMSO were added. After the test compound was added, 10 μl of E1 (human), E2 (Ubch5c), and APC in Protein Buffer was added to obtain a final concentration of 5 ng/well of E1, 20 ng/well of E2 and 100 ng/well of APC. The plates were shaken for 10 minutes and incubated at room temperature for 1 hour. After incubation, the plates were washed 4 times with 225 μl of 1×PBS and 100 μl/well of Antibody Mix were added to each well. The plates were incubated at room temperature for another hour after which they were washed 4 times with 225 μl of 1×PBS and 100 μl/well of Lumino substrate were added to each well. The luminescence was measured by using a BMG luminescence microplate reader. The Blocking Buffer (1% Casein in 1×PBS) was stored at 4° C. until use.
The reaction buffer consisted of 62.5 mM Tris pH 7.6 (Trizma Base—Sigma T 8524), 3 mM MgCl2 (Magnesium Chloride—Sigma M 2393), 1 mM DTT (Sigma D 9779), 2.5 mM ATP (Roche Boehringer Mann Corp. 635 316), 100 ng/well of Flag ubiquitin, 0.1% BSA (Sigma A 7906), and 0.05% Tween 20 (Sigma P 7949).
The Protein Buffer consisted of 20 mM Tris pH 7.6, 10% glycerol (Sigma G 5516) and 1 mM DTT.
The antibody mix consisted of 0.25% BSA (Sigma A 7906) in 1×PBS, 1/50,000 anti Flag (Sigma F 3165), 1/100,000 of anti Mouse IgG HRP (Jackson Imrunoresearch #115 035 146).
The substrate mix consisted of SuperSignal Substrate from Pierce (catalog number 37070ZZ) and was prepared by mixing 100 ml of the peroxide solution, 100 ml of the enhancer solution and 100 ml of Milli Q® water.

TRAF6/Uev1A/Ubc13 = target: T1, TRAF6/Uev1A/Ubc13 (Homo sapiens, UniProt Q9Y4K3); test: TRAF6/Uev1A/Ubc13 plate-based ubiquitin ligase assay; assay type: biochemical
T1 sequence (Q9Y4K3 1-522): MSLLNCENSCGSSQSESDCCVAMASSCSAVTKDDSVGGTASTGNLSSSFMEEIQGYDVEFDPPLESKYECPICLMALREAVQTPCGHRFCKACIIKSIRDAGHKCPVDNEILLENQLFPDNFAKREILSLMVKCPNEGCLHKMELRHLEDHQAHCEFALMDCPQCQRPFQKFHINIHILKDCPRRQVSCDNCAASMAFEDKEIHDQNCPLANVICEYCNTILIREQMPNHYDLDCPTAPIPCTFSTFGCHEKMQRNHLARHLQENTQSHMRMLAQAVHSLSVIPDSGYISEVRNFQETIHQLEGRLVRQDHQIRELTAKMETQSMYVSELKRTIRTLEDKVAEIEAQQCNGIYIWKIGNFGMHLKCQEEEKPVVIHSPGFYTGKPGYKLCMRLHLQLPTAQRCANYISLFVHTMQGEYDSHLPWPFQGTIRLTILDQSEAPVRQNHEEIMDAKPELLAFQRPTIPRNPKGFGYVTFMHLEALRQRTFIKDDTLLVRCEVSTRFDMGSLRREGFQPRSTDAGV
Procedure, shortened: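 Ligase activity was read as luminescence from anti-Flag/HRP detection of Flag-ubiquitin bound to casein-blocked Ni-plates alongside His-ubiquitin after a 1 h room-temperature reaction. Buffer: 62.5 mM Tris pH 7.5, 6.25 mM MgCl2, 1.0 mM DTT, 2 μM ATP; E1, Uev1a/Ubc13 and TRAF6 added last to start. IC50s derived across compound concentrations.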

Row | Compound | IC50 ([1]; Homo sapiens, A549, ICAM assay) [µM] | IC50 (APC11/APC2) [µM] | IC50 (TRAF6/Uev1A/Ubc13) [µM] | IC50 ([1]; ICAM assay) [µM]
1 | COC(=O)c1ccc(NS(=O)(=O)c2ccc(Sc3ccc(O)cc3)c3nonc23)cc1 [compound 335, methyl 4-{[(7-{[4-hydroxyphenyl]thio}-2,1,3-benzoxadiazol-4-yl)sulfonyl]amino}benzoate] | ≥ 20 | ≥ 20 | ≥ 20 | –
2 | Clc1cc(Sc2cccc3cccnc23)cc2nonc12 [compound 336, 8-[(4-chloro-2,1,3-benzoxadiazol-6-yl)thio]quinoline] | ≥ 20 | ≥ 20 | ≥ 20 | –
3 | O=C1OC2(CCN(S(=O)(=O)c3c(Cl)ccc4nonc34)CC2)c2ccccc21 [compound 337, 1′-{[5-chloro-(2,1,3-benzoxadiazol-4-yl)]sulfonyl}-3H-spiro[2-benzofuran-1,4′-piperidin]-3-one] | < 1 | ≥ 20 | ≥ 20 | –
4 | O=S(=O)(Nc1ccccc1F)c1ccc(Cl)c2nonc12 [compound 345, 7-chloro-N-(2-fluorophenyl)-2,1,3-benzoxadiazole-4-sulfonamide] | 1 to 20 | ≥ 20 | ≥ 20 | –
5 | O=S(=O)(Nc1ccccc1F)c1ccc(Nc2ccccc2F)c2nonc12 [compound 346, N-(2-fluorophenyl)-7-(2-fluorophenylamino)-2,1,3-benzoxadiazole-4-sulfonamide] | ≥ 20 | 1 to 20 | ≥ 20 | –
6 | CC(C)c1ccccc1NS(=O)(=O)c1ccc(Cl)c2nonc12 [compound 347, 7-chloro-N-(2-isopropylphenyl)-2,1,3-benzoxadiazole-4-sulfonamide] | 1 to 20 | ≥ 20 | ≥ 20 | –
7 | COc1cc(NS(=O)(=O)c2ccc(F)c3nonc23)c(OC)cc1Cl [compound 348, N-(4-chloro-2,5-dimethoxyphenyl)-7-fluoro-2,1,3-benzoxadiazole-4-sulfonamide] | 1 to 20 | ≥ 20 | ≥ 20 | –
8 | COc1cc(Nc2ccc(S(=O)(=O)Nc3cc(OC)c(Cl)cc3OC)c3nonc23)c(OC)cc1Cl [compound 349, N-(4-chloro-2,5-dimethoxyphenyl)-7-([4-chloro-2,5-dimethoxyphenyl]amino)-2,1,3-benzoxadiazole-4-sulfonamide] | – | 1 to 20 | ≥ 20 | ≥ 20
9 | Cc1c(NS(=O)(=O)c2ccc(Cl)c3nonc23)cccc1C(F)(F)F [compound 350, 7-chloro-N-(2-methyl-3-[trifluoromethyl]phenyl)-2,1,3-benzoxadiazole-4-sulfonamide] | 1 to 20 | ≥ 20 | ≥ 20 | –
10 | Cc1ccc(F)cc1NS(=O)(=O)c1ccc(Cl)c2nonc12 [compound 351, 7-chloro-N-(5-fluoro-2-methylphenyl)-2,1,3-benzoxadiazole-4-sulfonamide] | 1 to 20 | ≥ 20 | ≥ 20 | –
11 | Cc1cccc(C(C)C)c1NS(=O)(=O)c1ccc(Cl)c2nonc12 [compound 352, 7-chloro-N-(2-isopropyl-6-methylphenyl)-2,1,3-benzoxadiazole-4-sulfonamide] | 1 to 20 | ≥ 20 | ≥ 20 | –
12 | Cc1cccc(C)c1NS(=O)(=O)c1ccc(Cl)c2nonc12 [compound 353, 7-chloro-N-(2,6-dimethylphenyl)-2,1,3-benzoxadiazole-4-sulfonamide] | 1 to 20 | ≥ 20 | ≥ 20 | –
13 | Cc1ccc(NS(=O)(=O)c2ccc(Cl)c3nonc23)c(Cl)c1 [compound 354, 7-chloro-N-(2-chloro-4-methylphenyl)-2,1,3-benzoxadiazole-4-sulfonamide] | 1 to 20 | ≥ 20 | ≥ 20 | –
14 | Cc1cc(C)c(NS(=O)(=O)c2ccc(Cl)c3nonc23)c(C)c1 [compound 355, 7-chloro-N-mesityl-2,1,3-benzoxadiazole-4-sulfonamide] | ≥ 20 | ≥ 20 | ≥ 20 | –
15 | COc1ccccc1NS(=O)(=O)c1ccc(Cl)c2nonc12 [compound 356, 7-chloro-N-(2-methoxyphenyl)-2,1,3-benzoxadiazole-4-sulfonamide] | 1 to 20 | ≥ 20 | ≥ 20 | –
16 | O=S(=O)(Nc1c(F)cc(F)cc1F)c1ccc(Cl)c2nonc12 [compound 357, 7-chloro-N-(2,4,6-trifluorophenyl)-2,1,3-benzoxadiazole-4-sulfonamide] | ≥ 20 | ≥ 20 | ≥ 20 | –
17 | Cc1cc(F)ccc1NS(=O)(=O)c1ccc(Cl)c2nonc12 [compound 358, 7-chloro-N-(4-fluoro-2-methylphenyl)-2,1,3-benzoxadiazole-4-sulfonamide] | ≥ 20 | ≥ 20 | ≥ 20 | –
18 | COc1ccc(OC)c(NS(=O)(=O)c2ccc(Cl)c3nonc23)c1 [compound 359, 7-chloro-N-(2,5-dimethoxyphenyl)-2,1,3-benzoxadiazole-4-sulfonamide] | 1 to 20 | ≥ 20 | ≥ 20 | –
19 | COC(=O)c1ccc(Cl)cc1NS(=O)(=O)c1ccc(Cl)c2nonc12 [compound 360, methyl 4-chloro-2-{[(7-chloro-2,1,3-benzoxadiazol-4-yl)sulfonyl]amino}benzoate] | 1 to 20 | ≥ 20 | ≥ 20 | –
